The values below come from patent publication US20260007634A1, “PHARMACEUTICAL COMPOSITIONS FOR THE TREATMENT OF ALLERGIC DISEASES” (KINKI UNIVERSITY, priority 2022, published 2026).

In one assay the test system is IL-5. In words: Serum IL-5 ELISA, food allergy mice. Conditions: OVA food allergy; serum day 28; oral 10 mg/kg (dexamethasone 2 mg/kg); control 135, vehicle 916. The assay is classed as in vivo, mouse. On the procedure: A 0.2 mL dose of 10 μg ovalbumin (OVA) and 1 mg Alum mixture was administered to 6-week-old female Balb/c mice (Japan SLC Inc.) (day 0 of the example). Alum was used as an adjuvant. Seven days later, the Balb/c mice were immunized again with a 0.2 mL injection of the above mixture. Starting on day 14, mice were orally treated with 10 mg/kg of norathyriol, 10 mg/kg of mangiferin 8a, 10 mg/kg of tofacitinib (JAK inhibitor), 2 mg/kg of dexamethasone (steroid) and 10 mg/kg of olopatadine (antihistamine) daily for 14 consecutive days. […]
Serum was collected from day 28 mice in Examples 21, and IL-5 production was measured by enzyme-linked immunosorbent assay (ELISA). This assay was performed using a mouse IL-5 ELISA kit (R&D).

Assay [1] concerns B cells collected from mice. In words: LPS-induced differentiation into mature B cells (IgM/IgD flow cytometry). The assay is classed as cell-based, mouse. Conditions: 10 μM compound, 10 μg/mL LPS, 10 days. The method, then:
(§1) B cells collected from mice were cultured in RPMI 1640 medium for 1 day. Then, 10 μM mangiferin 8a and 10 μM norathyriol were added to B cell, and after 1 day of culture, 10 μg/mL of LPS was added, followed by 10 days of culture. After 10 days of culture, cells were stained with anti-IgM and anti-IgD antibodies, markers of B cells, and the expression of IgM and IgD was measured using BD LSRFortessa. Note that IgM negative and IgD negative indicates pre-B cells, IgM positive and IgD negative indicates immature B cells, and IgM positive and IgD positive indicates mature B cells.
(In flow cytometry, cells or beads pass a laser one at a time.)

For a further assay, the target named is T1, NIK (Mus musculus, UniProt Q9WUL6).
T1 construct: Proteins were extracted with cell lysate and used as samples; endogenous in cells; host or cells: primary splenic B cells from 6-week-old male Balb/c mice
In words: BAFF-induced NIK activation in B cells (Western blotting, phospho-NIK). It is filed as cell-based. The method, then: Spleens were harvested from 6-week-old male Balb/c mice and B cells were isolated. After isolation, the cells were seeded in […] dish and cultured in RPMI 1640 medium for 1 day and used as control. In addition, B cells were seeded into 100 mm^2 dish, and after 1 day of culture, 100 ng/mL BAFF was added and cultured for 1 h. Furthermore, B cells were seeded in […] dish, and after 1 day of culture, 100 μM mangiferin, 10 μM mangiferin 8a, 10 μM norathyriol, 20 μM 1,3,5,6-tetrahydroxyxanthone, 10 μM xanthohydrol, 10 μM of α-mangostin, and 10 μM of γ-mangostin were added to B cells, and after 23 h, 100 ng/mL BAFF was added to each, and the cells were incubated for 1 h. All were incubated at 37° C. and 5% CO2.
Proteins were extracted with cell lysate and used as samples. Each sample was transferred to a PVDF membrane after SDSPAGE and assayed with anti-phospho-NIK, anti-NIK, anti-NF-κB p52, anti-NF-κB p65 and anti-Lamin antibodies.
The antibody species is indicated in the vertical direction. Specifically, in the case of anti-phospho-NIK antibody (described as “Phospho-NIK”), anti-NIK antibody (described as “NIK”), anti-NF-κB p52 antibody (described as “NF-κB p52 nuclear”), anti-NF-κB p65 antibody (described as “NF-κB p65 nuclear”) and anti-Lamin antibody (described as “Lamin”).

The test system of assay [2] is B cells collected from mice. In words: LPS-induced differentiation into plasma cells (CD138 flow cytometry). It is filed as cell-based, mouse. Conditions: 10 μM compound, 10 μg/mL LPS, 10 days; vs LPS-added group. The method, then:
B cells collected from mice were cultured in RPMI 1640 medium for 1 day. Then, 10 μM mangiferin 8a and 10 μM norathyriol were added to B cell, and after 1 day of culture, 10 μg/mL of LPS was added, followed by 10 days of culture. After 10 days of culture, cells were stained with anti-CD138 antibody, a marker of plasma cells, and CD138 expression was measured using BD LSRFortessa.

For assay [3], the system named is B cells collected from mice. Briefly: BAFF-induced differentiation into mature B cells (IgM/IgD flow cytometry). The assay is classed as cell-based, mouse. Conditions: 100 ng/mL BAFF, 10 days, 100 μM mangiferin, 20 μM 1,3,5,6-tetrahydroxyxanthone, 10 μM others. The method, then:
as §1, with “Then, 100 μM mangiferin,” for “Then,”, “8a,” for “8a and”, “norathyriol, 20 μM 1,3,5,6-tetrahydroxyxanthone, 10 μM xanthohydrol, 10 μM α-mangostin, 10 μM of γ-mangostin” for “norathyriol”, “100 ng/mL” for “10 μg/mL”, “BAFF” for “LPS”

The test system of the next assay is OVA-IgE antibody. Briefly: Serum OVA-IgE antibody ELISA, food allergy mice. It is filed as in vivo, mouse. The conditions noted are these: serum day 28, oral 10 mg/kg (dexamethasone 2 mg/kg), control 1.5, vehicle 74. On the procedure: A 0.2 mL dose of 10 μg ovalbumin (OVA) and 1 mg Alum mixture was administered to 6-week-old female Balb/c mice (Japan SLC Inc.) (day 0 of the example). Alum was used as an adjuvant. Seven days later, the Balb/c mice were immunized again with a 0.2 mL injection of the above mixture. Starting on day 14, mice were orally treated with 10 mg/kg of norathyriol, 10 mg/kg of mangiferin 8a, 10 mg/kg of tofacitinib (JAK inhibitor), 2 mg/kg of dexamethasone (steroid) and 10 mg/kg of olopatadine (antihistamine) daily for 14 consecutive days. Starting on day 14, 10 mg OVA was administered orally every other day […], and the frequency of diarrhea was measured after the final administration on day 28. Note that tofacitinib, dexamethasone, and olopatadine are currently in clinical use in food allergy and were used as control drugs in this example.
Serum was collected from day 28 mice in Examples 21, and OVA-IgE antibody production was measured by enzyme-linked immunosorbent assay (ELISA). This assay was performed using a mouse OVA-IgE antibody ELISAkit (FUJIFILM Wako).
In general terms: In an ELISA, binding on a coated surface is turned into a signal by an enzyme label.

T1 sequence (Q9WUL6 whole entry): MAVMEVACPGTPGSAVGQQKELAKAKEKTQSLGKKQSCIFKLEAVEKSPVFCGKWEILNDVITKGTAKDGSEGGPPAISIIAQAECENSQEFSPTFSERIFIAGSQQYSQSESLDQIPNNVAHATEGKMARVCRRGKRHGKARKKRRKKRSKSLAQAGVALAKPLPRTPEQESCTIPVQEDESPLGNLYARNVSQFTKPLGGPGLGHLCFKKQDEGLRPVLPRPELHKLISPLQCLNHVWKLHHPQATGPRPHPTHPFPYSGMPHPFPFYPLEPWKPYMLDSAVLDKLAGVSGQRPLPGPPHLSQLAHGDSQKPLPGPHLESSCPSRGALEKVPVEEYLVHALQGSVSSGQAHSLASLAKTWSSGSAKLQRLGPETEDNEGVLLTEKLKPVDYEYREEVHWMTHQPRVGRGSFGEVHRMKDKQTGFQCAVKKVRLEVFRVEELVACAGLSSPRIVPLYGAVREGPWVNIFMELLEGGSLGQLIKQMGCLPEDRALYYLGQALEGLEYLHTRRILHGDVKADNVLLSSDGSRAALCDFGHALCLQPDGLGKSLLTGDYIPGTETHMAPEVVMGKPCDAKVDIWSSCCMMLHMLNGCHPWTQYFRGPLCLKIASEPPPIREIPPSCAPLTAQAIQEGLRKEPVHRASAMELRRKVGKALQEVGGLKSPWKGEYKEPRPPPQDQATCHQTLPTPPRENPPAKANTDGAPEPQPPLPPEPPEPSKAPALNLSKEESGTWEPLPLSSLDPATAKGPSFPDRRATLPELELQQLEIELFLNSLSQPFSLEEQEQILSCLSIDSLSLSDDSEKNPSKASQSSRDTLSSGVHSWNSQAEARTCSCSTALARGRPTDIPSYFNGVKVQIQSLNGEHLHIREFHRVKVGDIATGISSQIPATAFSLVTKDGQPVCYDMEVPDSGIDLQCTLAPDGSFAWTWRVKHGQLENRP

On to `O=c1c2cc(O)c(O)cc2oc2cc(O)cc(O)c12` [norathyriol, 1,3,6,7-tetrahydroxyxanthone], for which the “amount of IL-5” value with IL-5 is 475 pg/mL. Moreover, the “population IgM positive and IgD positive (mature B cells)” value is 0.065% in assay [1] (control 0.239, LPS only 20.7) and 0.062% in assay [3] (control 0, BAFF only 45.6). Besides, the “population IgM positive and IgD negative (immature B cells)” value in assay [1] (control 1.91, LPS only 41.8) worked out at 2.14%; in assay [3] (control 0.529, BAFF only 42.3), 1.46%. For the same molecule, the “population IgM negative and IgD negative (pre-B cells)” value is given as 97.7% in assay [1] (control 96.7, LPS only 36.6) and 98.5% in assay [3] (control 99.5, BAFF only 11.7). Also, the “phospho-NIK band (immunoblotting)” value on NIK (100 ng/mL BAFF 1 h after 23 h compound, 100 μM mangiferin, 20 μM 1,3,5,6-tetrahydroxyxanthone, 10 μM others) is listed as “fainter”. For the same molecule, the “inhibition of NIK activity compared with mangiferin” value against NIK (general statement in the description, referring to the examples) is reported as “more inhibition of NIK activity than mangiferin”. Besides, in assay [2], the CD138 expression entry was “significantly decreased CD138 expression”. For the same molecule, in the assay with OVA-IgE antibody, the “amount of OVA-IgE antibody” value was 45 U/mL.
In the case of `C[C@@H]1C[C@H]2[C@@H]3CCC4=CC(=O)C=C[C@]4(C)[C@@]3(F)[C@@H](O)C[C@]2(C)[C@@]1(O)C(=O)CO` [dexamethasone], the “amount of IL-5” value with IL-5 is listed as 249 pg/mL. In the assay on OVA-IgE antibody, the “amount of OVA-IgE antibody” value was determined as 21 U/mL.
Take `CN(C)CC/C=C1/c2ccccc2COc2ccc(CC(=O)O)cc21` [olopatadine]: the “amount of IL-5” value in the assay with IL-5 is reported as 832 pg/mL. The “amount of OVA-IgE antibody” value in the assay on OVA-IgE antibody is recorded as 68 U/mL.
The matching figures for `C[C@@H]1CCN(C(=O)CC#N)C[C@@H]1N(C)c1ncnc2[nH]ccc12` [tofacitinib]: 791 pg/mL and 61 U/mL.
